Experimental data published in ChEMBL document CHEMBL1201862, “PubChem BioAssay data set” (2004).
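Compound exposure: 48 hours, 5 concentrations, 96-well plates. GI50 is the concentration that inhibits growth by half.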 Active and inactive are the calls of the source. Rule as the data show it: active = GI50 up to about 1.1 µM and inactive = higher. Residues, ends and D or L forms follow the SMILES beside them.

Tests used:
Assay in all cases: NCI anticancer screen, dose series, 48 h
ACHN = test system: ACHN
COLO 205 = test system: COLO 205
786-0 = test system: 786-0
Malme-3M = test system: Malme-3M
MOLT-4 = test system: MOLT-4
SNB-75 = test system: SNB-75
KM12 = test system: KM12
SF-295 = test system: SF-295
HL-60 = test system: HL-60
IGROV-1 = test system: IGROV-1
U-251 = test system: U-251
A549 = test system: A549
UACC-257 = test system: UACC-257
OVCAR-5 = test system: OVCAR-5
OVCAR-4 = test system: OVCAR-4
TK-10 = test system: TK-10
K562 = test system: K562
LOX IMVI = test system: LOX IMVI
MCF7 = test system: MCF7
SK-MEL-28 = test system: SK-MEL-28

| Compound | GI50 (ACHN) | GI50 (COLO 205) | GI50 (786-0) | GI50 (Malme-3M) | GI50 (MOLT-4) | GI50 (SNB-75) | GI50 (KM12) | GI50 (SF-295) | GI50 (HL-60) | GI50 (IGROV-1) | GI50 (U-251) | GI50 (A549) | GI50 (UACC-257) | GI50 (OVCAR-5) | GI50 (OVCAR-4) | GI50 (TK-10) | GI50 (K562) | GI50 (LOX IMVI) | GI50 (MCF7) | GI50 (SK-MEL-28) |
| --- | --- | --- | --- | --- | --- | --- | --- | --- | --- | --- | --- | --- | --- | --- | --- | --- | --- | --- | --- | --- |
| CCCCc1ccc(Nc2nc(Cl)c3c(ncn3COCCOC(C)=O)n2)cc1 | 18.5 µM (inactive) | 22.3 µM (inactive) | 20.1 µM (inactive) | 19.4 µM (inactive) | 20.4 µM (inactive) | 2.2 µM (inactive) | 18 µM (inactive) | 14.4 µM (inactive) | 21.6 µM (inactive) | 19.2 µM (inactive) | 22.9 µM (inactive) | 19 µM (inactive) | 17.1 µM (inactive) | 18.5 µM (inactive) | 24.8 µM (inactive) | 20.4 µM (inactive) | 24.4 µM (inactive) | 17.5 µM (inactive) | 22.5 µM (inactive) | – |
| CCOC(=O)c1cc2cc(Cc3ccc4[nH]c(C(=O)OCC)cc4c3)ccc2[nH]1 | 14.5 µM (inactive) | 47.3 µM (inactive) | 2.86 µM (inactive) | 37.1 µM (inactive) | > 100 µM (inactive) | 12.2 µM (inactive) | 23.7 µM (inactive) | 17.5 µM (inactive) | 9.35 µM (inactive) | 15.4 µM (inactive) | 11.2 µM (inactive) | – | 43.6 µM (inactive) | > 100 µM (inactive) | 6.7 µM (inactive) | 13.9 µM (inactive) | 21.9 µM (inactive) | 38.7 µM (inactive) | 52.4 µM (inactive) | 29.4 µM (inactive) |
| C(=N\OCCc1ccccc1)/c1cccnc1 | > 100 µM (inactive) | > 100 µM (inactive) | > 100 µM (inactive) | > 100 µM (inactive) | 76.7 µM (inactive) | 71.6 µM (inactive) | > 100 µM (inactive) | > 100 µM (inactive) | 5.02 µM (inactive) | > 100 µM (inactive) | > 100 µM (inactive) | > 100 µM (inactive) | > 100 µM (inactive) | > 100 µM (inactive) | > 100 µM (inactive) | > 100 µM (inactive) | > 100 µM (inactive) | – | > 100 µM (inactive) | > 100 µM (inactive) |
| COc1ccc(C(OCC2OC3(COC(c4ccccc4)(c4ccc(OC)cc4)c4ccc(OC)cc4)C(Oc4nc(=O)ccn43)C2O)(c2ccccc2)c2ccc(OC)cc2)cc1 (stereo unspecified) | > 100 µM (inactive) | > 100 µM (inactive) | > 100 µM (inactive) | > 100 µM (inactive) | > 100 µM (inactive) | – | > 100 µM (inactive) | > 100 µM (inactive) | > 100 µM (inactive) | > 100 µM (inactive) | > 100 µM (inactive) | > 100 µM (inactive) | > 100 µM (inactive) | > 100 µM (inactive) | > 100 µM (inactive) | > 100 µM (inactive) | > 100 µM (inactive) | > 100 µM (inactive) | > 100 µM (inactive) | > 100 µM (inactive) |
| COc1cc2c3cc1Oc1c(OC)c(OC)cc4c1C(Cc1ccc(O)c(c1)Oc1ccc(cc1)CC3N(C)CC2)CN(C)C4 (stereo unspecified) | 27.4 µM (inactive) | 10 µM (inactive) | 10.8 µM (inactive) | 16.8 µM (inactive) | 7.31 µM (inactive) | 14.2 µM (inactive) | 13.2 µM (inactive) | 17.9 µM (inactive) | 1.11 µM (active) | 20.5 µM (inactive) | 12.3 µM (inactive) | 22.5 µM (inactive) | 13.5 µM (inactive) | 21.5 µM (inactive) | 17.6 µM (inactive) | 16.1 µM (inactive) | 5.22 µM (inactive) | – | 16.4 µM (inactive) | 16.8 µM (inactive) |
| O=C(Cn1c(C(=O)/C=C/c2ccco2)nc2ccccc21)c1ccc(Cl)cc1 | 26.2 µM (inactive) | 19.4 µM (inactive) | 14.3 µM (inactive) | 3.06 µM (inactive) | – | 29 µM (inactive) | 14.9 µM (inactive) | – | 15.5 µM (inactive) | 15.1 µM (inactive) | 23.8 µM (inactive) | 26.5 µM (inactive) | 14.5 µM (inactive) | > 100 µM (inactive) | 14.4 µM (inactive) | 25.1 µM (inactive) | 11.7 µM (inactive) | 13.8 µM (inactive) | 19.9 µM (inactive) | 26.6 µM (inactive) |
| Cc1noc(NS(=O)(=O)c2ccc(NC(=O)c3ccc4nc5ccccc5c(Nc5ccc(S(=O)(=O)Nc6onc(C)c6C)cc5)c4c3)cc2)c1C | > 100 µM (inactive) | > 100 µM (inactive) | 56.8 µM (inactive) | > 100 µM (inactive) | 80.5 µM (inactive) | > 100 µM (inactive) | > 100 µM (inactive) | > 100 µM (inactive) | 42.3 µM (inactive) | > 100 µM (inactive) | > 100 µM (inactive) | > 100 µM (inactive) | > 100 µM (inactive) | > 100 µM (inactive) | > 100 µM (inactive) | > 100 µM (inactive) | 25.5 µM (inactive) | 21 µM (inactive) | 45.6 µM (inactive) | > 100 µM (inactive) |
| CS[C@]12[C@@H]3C(=O)N(C)C(=O)[C@@H]3[C@](C)(C(=O)N1C)C(=O)N2c1ccccc1 | > 100 µM (inactive) | > 100 µM (inactive) | > 100 µM (inactive) | > 100 µM (inactive) | > 100 µM (inactive) | > 100 µM (inactive) | > 100 µM (inactive) | > 100 µM (inactive) | > 100 µM (inactive) | > 100 µM (inactive) | > 100 µM (inactive) | > 100 µM (inactive) | > 100 µM (inactive) | > 100 µM (inactive) | > 100 µM (inactive) | > 100 µM (inactive) | – | > 100 µM (inactive) | > 100 µM (inactive) | > 100 µM (inactive) |
| O=C1C[C@@]23CCC4(CC2=CCC[C@H]3O1)OCCO4 | > 100 µM (inactive) | > 100 µM (inactive) | > 100 µM (inactive) | > 100 µM (inactive) | > 100 µM (inactive) | – | > 100 µM (inactive) | > 100 µM (inactive) | > 100 µM (inactive) | > 100 µM (inactive) | > 100 µM (inactive) | > 100 µM (inactive) | > 100 µM (inactive) | > 100 µM (inactive) | > 100 µM (inactive) | > 100 µM (inactive) | > 100 µM (inactive) | > 100 µM (inactive) | > 100 µM (inactive) | > 100 µM (inactive) |
| N#C/C(=C/NC(=S)Nc1ccc(S(N)(=O)=O)cc1)C(N)=O | > 100 µM (inactive) | > 100 µM (inactive) | > 100 µM (inactive) | > 100 µM (inactive) | > 100 µM (inactive) | 42.1 µM (inactive) | > 100 µM (inactive) | > 100 µM (inactive) | 43.7 µM (inactive) | > 100 µM (inactive) | > 100 µM (inactive) | > 100 µM (inactive) | > 100 µM (inactive) | > 100 µM (inactive) | > 100 µM (inactive) | > 100 µM (inactive) | – | – | > 100 µM (inactive) | > 100 µM (inactive) |
| COc1cc(OC)c(OC)cc1/C=C/c1nc2ccccc2s1 | > 100 µM (inactive) | > 100 µM (inactive) | > 100 µM (inactive) | > 100 µM (inactive) | 34.2 µM (inactive) | 91.4 µM (inactive) | > 100 µM (inactive) | 67 µM (inactive) | 5.52 µM (inactive) | > 100 µM (inactive) | > 100 µM (inactive) | > 100 µM (inactive) | > 100 µM (inactive) | > 100 µM (inactive) | – | 98.2 µM (inactive) | 5.42 µM (inactive) | > 100 µM (inactive) | 82.4 µM (inactive) | > 100 µM (inactive) |
| CC(CC(C)[C@H]1CCC2[C@H]3C(CC(=O)[C@@]21C)[C@@]1(C)CCC(O)C[C@H]1C[C@@H]3O)C(=O)O (stereo partly specified) | > 100 µM (inactive) | > 100 µM (inactive) | > 100 µM (inactive) | > 100 µM (inactive) | 46.2 µM (inactive) | > 100 µM (inactive) | > 100 µM (inactive) | – | 46.8 µM (inactive) | > 100 µM (inactive) | > 100 µM (inactive) | > 100 µM (inactive) | > 100 µM (inactive) | > 100 µM (inactive) | > 100 µM (inactive) | > 100 µM (inactive) | 34.7 µM (inactive) | > 100 µM (inactive) | 92.3 µM (inactive) | > 100 µM (inactive) |
| C=C1C(=O)OC2CC3(C)CCCC(C)C3=CC12 (stereo unspecified) | 2.61 µM (inactive) | 1.3 µM (inactive) | 2.79 µM (inactive) | 3.9 µM (inactive) | 2.56 µM (inactive) | 2.64 µM (inactive) | 12.6 µM (inactive) | 13.1 µM (inactive) | 0.469 µM (active) | 10.1 µM (inactive) | 7 µM (inactive) | 12.6 µM (inactive) | 5.38 µM (inactive) | 11.2 µM (inactive) | 4.03 µM (inactive) | 2.46 µM (inactive) | 2.35 µM (inactive) | 1.57 µM (inactive) | 1.78 µM (inactive) | 2.65 µM (inactive) |
| CCC(C)C(NC(=O)C1CCCN1)C(=O)NC(C(=O)NCC(=O)NC(CC(N)=O)C(=O)NC(CC(C)C)C(=O)NC(CC(C)C)C(=O)NC(CCCCN)C(N)=O)C(C)C (stereo unspecified) (H-PIVGNLLK-NH2; configuration not given here) | > 75 µM (inactive) | > 75 µM (inactive) | > 75 µM (inactive) | > 75 µM (inactive) | > 75 µM (inactive) | – | > 75 µM (inactive) | > 75 µM (inactive) | 23 µM (inactive) | > 75 µM (inactive) | > 75 µM (inactive) | > 75 µM (inactive) | > 75 µM (inactive) | > 75 µM (inactive) | > 75 µM (inactive) | > 75 µM (inactive) | > 75 µM (inactive) | > 75 µM (inactive) | > 75 µM (inactive) | > 75 µM (inactive) |
